Laboratory results: PMC7238241, “Lack of Correlation between In Vitro and In Vivo Studies on the Inhibitory Effects of (‒)-Sophoranone on CYP2C9 Is Attributable to Low Oral Absorption and Extensive Plasma Protein Binding of (‒)-Sophoranone” (Pharmaceutics, 2020)
Where two headings read alike, the source gives them in different places.

Experiments:
CYP2B6 = molecular target: T1, CYP2B6 (Homo sapiens, UniProt P20813); assay: Reversible CYP2B6 inhibition, cocktail assay (bupropion hydroxylase) in human liver microsomes; type: biochemical
T1 construct: tissue Corning Life Sciences; host or cells: pooled human liver microsomes, 150 donors
T1 sequence (P20813 1-491): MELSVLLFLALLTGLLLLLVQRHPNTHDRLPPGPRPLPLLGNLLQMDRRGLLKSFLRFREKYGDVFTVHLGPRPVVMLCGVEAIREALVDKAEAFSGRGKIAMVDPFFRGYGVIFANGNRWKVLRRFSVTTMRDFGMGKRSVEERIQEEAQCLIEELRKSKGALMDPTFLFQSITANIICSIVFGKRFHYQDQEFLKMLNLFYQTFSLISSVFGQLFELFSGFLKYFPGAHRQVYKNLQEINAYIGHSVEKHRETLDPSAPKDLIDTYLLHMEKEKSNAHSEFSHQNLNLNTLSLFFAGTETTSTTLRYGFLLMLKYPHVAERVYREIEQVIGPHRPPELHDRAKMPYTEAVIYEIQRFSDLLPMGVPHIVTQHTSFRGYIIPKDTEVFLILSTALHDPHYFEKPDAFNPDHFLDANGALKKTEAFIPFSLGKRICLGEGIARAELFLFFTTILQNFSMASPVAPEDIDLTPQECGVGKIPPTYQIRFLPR
Procedure: (§1) The inhibitory effects of SPN on CYP1A2, CYP2A6, CYP2B6, CYP2C8, CYP2C9, CYP2C19, CYP2D6, CYP2E1, and CYP3A4 were evaluated in pooled human liver microsomes through the use of specific CYP probe substrates (cocktail assay), as previously described with a slight modification. Concentrations of each CYP probe in Table 1 were used close to their reported Km values.
(§2) Briefly, a 90-µL incubation mixture, including pooled human liver microsomes (final concentration 0.1 mg/mL), 50 mM phosphate buffer (pH 7.4), each CYP-probe substrate cocktail set, and SPN (0–50 μM), was pre-incubated for 5 min at 37 °C. SPN was dissolved in methanol and spiked into the incubation mixture to a final concentration of 0.5% methanol. […]
(§3) The IC50 values were calculated via nonlinear least-squares regression analysis from logarithmic plots of inhibitor concentration versus percentage of activity remaining after inhibition, using SigmaPlot (ver. 14.0; Systat Software Inc, Chicago, IL, USA). The Ki values were determined from the equations for a single substrate single inhibitor model and the software available in the SigmaPlot Enzyme Kinetics module. Competitive, non-competitive, uncompetitive, or mixed inhibition models were evaluated and ranked according to the best fit based on Akaike Information Criterion (AIC) values. […]

CYP2C9 = molecular target: T2, CYP2C9 (Homo sapiens, UniProt P11712); assay: Determination of Ki and inhibition type on CYP2C9 activity in human liver microsomes; type: biochemical; conditions: for Ki: human liver microsomes, n = 3
T2 construct: tissue Corning Life Sciences; host or cells: pooled human liver microsomes, 150 donors
Procedure: Based on the IC50 values, the Ki values of SPN on CYP2C9 activity were determined. […] Other procedures were similar to those of the reversible inhibition studies. All incubations were performed in triplicate, and the data are shown as the mean ± standard deviation.
The IC50 values were calculated via nonlinear least-squares regression analysis from logarithmic plots of inhibitor concentration versus percentage of activity remaining after inhibition, using SigmaPlot (ver. 14.0; Systat Software Inc, Chicago, IL, USA). The Ki values were determined from the equations for a single substrate single inhibitor model and the software available in the SigmaPlot Enzyme Kinetics module. Competitive, non-competitive, uncompetitive, or mixed inhibition models were evaluated and ranked according to the best fit based on Akaike Information Criterion (AIC) values. For visual inspection, the data were presented as Dixon plots.

[1] = Unbound fraction in rat plasma (rapid equilibrium dialysis); type: in vitro ADME
Procedure: (§4) The plasma or liver microsomal protein bindings were performed using a rapid equilibrium dialysis device and cellulose membranes with a molecular weight cutoff of 8000 (Thermo Scientific, Rockford, IL, USA). The rat and human plasma samples (200 μL) containing SPN at 10 and 50 μM, respectively, were dialyzed against a dialysis buffer, phosphate-buffered saline (PBS, 400 μL). The loaded dialysis plate was covered with sealing tape, placed on an orbital shaker at approximately 200 rpm, and incubated at 37 °C for 4 h. Thereafter, samples (100 μL) from both PBS and plasma chambers were collected and mixed with an equal volume of blank plasma and PBS, respectively. All samples were stored at −80 °C until LC-MS/MS analysis. The unbound fraction of SPN in human (or rat) plasma was calculated by dividing the SPN concentration in PBS by that in plasma.

[2] = Unbound fraction in human plasma (rapid equilibrium dialysis); type: in vitro ADME
Procedure: as §4

CYP2C8 = molecular target: T3, CYP2C8 (Homo sapiens, UniProt P10632); assay: Reversible CYP2C8 inhibition, cocktail assay (rosiglitazone p-hydroxylase) in human liver microsomes; type: biochemical; conditions: human liver microsomes 0.1 mg/mL, rosiglitazone probe, n = 3
T3 construct: tissue Corning Life Sciences; host or cells: pooled human liver microsomes, 150 donors
T3 sequence (P10632 1-490): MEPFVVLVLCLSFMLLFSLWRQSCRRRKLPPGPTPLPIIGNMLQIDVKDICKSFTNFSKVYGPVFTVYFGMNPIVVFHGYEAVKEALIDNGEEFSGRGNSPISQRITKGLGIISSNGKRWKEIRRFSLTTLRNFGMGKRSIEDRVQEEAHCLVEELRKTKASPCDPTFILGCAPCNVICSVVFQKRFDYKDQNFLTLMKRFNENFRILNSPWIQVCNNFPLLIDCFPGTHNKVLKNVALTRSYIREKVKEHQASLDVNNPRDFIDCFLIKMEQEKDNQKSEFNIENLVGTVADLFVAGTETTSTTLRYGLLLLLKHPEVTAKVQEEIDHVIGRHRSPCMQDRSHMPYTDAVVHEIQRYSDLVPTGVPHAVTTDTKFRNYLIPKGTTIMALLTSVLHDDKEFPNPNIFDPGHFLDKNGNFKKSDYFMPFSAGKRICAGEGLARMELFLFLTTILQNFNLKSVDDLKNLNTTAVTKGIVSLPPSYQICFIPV
Procedure: as §1, §2, §3

CYP2C19 = molecular target: T4, CYP2C19 (Homo sapiens, UniProt P33261); assay: Reversible CYP2C19 inhibition, cocktail assay (omeprazole 5-hydroxylase) in human liver microsomes; type: biochemical; conditions: human liver microsomes 0.1 mg/mL, omeprazole probe, n = 3
T4 construct: tissue Corning Life Sciences; host or cells: pooled human liver microsomes, 150 donors
Procedure: as §1, §2, §3

T2 sequence (P11712 whole entry): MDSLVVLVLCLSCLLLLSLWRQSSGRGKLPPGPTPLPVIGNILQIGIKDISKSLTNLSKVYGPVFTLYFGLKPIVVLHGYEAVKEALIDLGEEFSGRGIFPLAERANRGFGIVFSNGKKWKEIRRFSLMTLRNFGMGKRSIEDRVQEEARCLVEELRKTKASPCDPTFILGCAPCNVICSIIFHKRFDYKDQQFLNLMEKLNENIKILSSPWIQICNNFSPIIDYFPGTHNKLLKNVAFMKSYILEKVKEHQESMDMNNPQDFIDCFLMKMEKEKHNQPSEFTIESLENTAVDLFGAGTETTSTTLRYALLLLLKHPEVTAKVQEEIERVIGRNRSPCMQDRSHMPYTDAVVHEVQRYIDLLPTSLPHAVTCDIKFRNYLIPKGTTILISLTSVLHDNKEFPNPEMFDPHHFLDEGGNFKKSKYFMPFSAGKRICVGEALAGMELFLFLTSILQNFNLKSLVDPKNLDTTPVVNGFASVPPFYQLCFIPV
T4 sequence (P33261 whole entry): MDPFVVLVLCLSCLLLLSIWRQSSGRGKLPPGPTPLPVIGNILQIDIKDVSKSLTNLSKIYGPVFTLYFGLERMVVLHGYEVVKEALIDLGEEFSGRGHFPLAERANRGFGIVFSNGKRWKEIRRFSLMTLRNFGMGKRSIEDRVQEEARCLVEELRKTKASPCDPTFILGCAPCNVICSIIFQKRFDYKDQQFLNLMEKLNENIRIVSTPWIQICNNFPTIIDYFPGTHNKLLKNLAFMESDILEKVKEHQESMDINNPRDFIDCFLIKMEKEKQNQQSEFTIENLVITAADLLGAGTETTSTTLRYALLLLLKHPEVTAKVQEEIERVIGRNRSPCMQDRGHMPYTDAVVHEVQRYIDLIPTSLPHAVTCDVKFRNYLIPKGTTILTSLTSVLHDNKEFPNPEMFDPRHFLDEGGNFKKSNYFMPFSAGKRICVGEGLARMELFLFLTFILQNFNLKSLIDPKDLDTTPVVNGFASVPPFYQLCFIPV

- residual enzyme activity, CYP2B6 (CYP2B6; at the highest tested concentration (50 μM)): greater than 80%
- IC50 (CYP2B6; human liver microsomes 0.1 mg/mL, cocktail assay, bupropion probe, n = 3): > 50 µM
- Ki (CYP2C9; Ki values, CYP2C9 probe diclofenac, diclofenac 2, 5, and 10 µM): 0.587 ± 0.047 µM
- Mode of inhibition, CYP2C9 probe diclofenac (CYP2C9; best fit based on AIC values): Competitive
- Mode of inhibition, CYP2C9 probe tolbutamide (CYP2C9; best fit based on AIC values): Competitive
- Ki (CYP2C9; tolbutamide 50, 100, and 150 µM, read-out: Ki values, CYP2C9 probe tolbutamide): 0.503 ± 0.0383 µM
- fraction unbound at 4 h, 10 µM ([1]; 10 μM, 37 °C, 4 h, n = 3, read-out: free fraction in rat plasma): 0.00038 ± 0.000102
- fraction unbound at 4 h, 50 µM ([1]; 50 μM, 37 °C, 4 h, n = 3, read-out: free fraction in rat plasma): 0.000531 ± 0.000149
- fraction unbound at 4 h ([1]; 10 and 50 μM, read-out: plasma protein binding, rat): < 0.001
- fraction unbound at 4 h, 10 µM ([2]; human, human plasma, 10 μM, 37 °C, 4 h, n = 3, read-out: free fraction in human plasma): 0.000457 ± 6.12e-05
- fraction unbound at 4 h, 50 µM ([2]; human, human plasma, 50 μM, 37 °C, 4 h, n = 3, read-out: free fraction in human plasma): 0.000927 ± 0.0004
- fraction unbound at 4 h ([2]; human, human plasma, 10 and 50 μM, read-out: plasma protein binding, human): < 0.001
- fraction unbound at 4 h ([2]; mean over human and rat plasma in the range of 10 and 50 μM, read-out: mean unbound fraction in plasma): 0.000574
- IC50 (CYP2C8): 13.6 ± 3.15 µM
- IC50 (CYP2C19): 16.8 ± 3.21 µM
Structure (SMILES): CC(C)=CCc1cc([C@@H]2CC(=O)c3ccc(O)c(CC=C(C)C)c3O2)cc(CC=C(C)C)c1O [SPN, (‒)-Sophoranone]
